Target: T1, CcoI (Rhodobacter capsulatus, UniProt D5ARQ0)
T1 construct: full-length with C-terminal Myc-His tag (pBAD-ccoI-Myc/HisA), expressed in E. coli C43(DE3), purified in DDM, monomeric SEC peak; strain MT1131 is printed as wild type and as genomic template of the ccoI-senC fusion
T1 sequence (D5ARQ0 1-742): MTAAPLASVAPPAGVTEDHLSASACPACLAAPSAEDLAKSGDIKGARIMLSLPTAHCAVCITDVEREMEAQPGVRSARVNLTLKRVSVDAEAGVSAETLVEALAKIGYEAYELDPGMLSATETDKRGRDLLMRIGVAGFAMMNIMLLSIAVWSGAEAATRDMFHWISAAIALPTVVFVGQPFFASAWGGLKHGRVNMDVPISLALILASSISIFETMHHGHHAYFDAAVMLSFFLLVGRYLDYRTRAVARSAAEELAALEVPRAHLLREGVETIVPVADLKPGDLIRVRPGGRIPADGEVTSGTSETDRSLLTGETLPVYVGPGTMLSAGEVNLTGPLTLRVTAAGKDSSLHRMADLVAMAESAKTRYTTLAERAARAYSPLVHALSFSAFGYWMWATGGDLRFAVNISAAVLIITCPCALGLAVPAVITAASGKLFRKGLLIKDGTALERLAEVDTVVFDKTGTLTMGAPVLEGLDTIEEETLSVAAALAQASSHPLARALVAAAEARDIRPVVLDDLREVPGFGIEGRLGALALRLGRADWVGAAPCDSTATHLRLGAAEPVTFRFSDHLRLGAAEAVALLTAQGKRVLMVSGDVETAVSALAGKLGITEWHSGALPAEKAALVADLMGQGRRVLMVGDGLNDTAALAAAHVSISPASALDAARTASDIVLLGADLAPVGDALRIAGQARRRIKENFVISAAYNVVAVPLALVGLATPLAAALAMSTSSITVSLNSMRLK
Assay: […] phosphate release (charcoal, scintillation)
Type: biochemical
Conditions: labelled compound; 10-100 µM ATP, 10 mM MgCl2, 50 mM Tris pH 7.5, 300 mM NaCl, 0.03% DDM, 35 °C; no added Cu

Nc1ncnc2c1ncn2[C@@H]1O[C@H](COP(=O)(O)OP(=O)(O)OP(=O)(O)O)[C@@H](O)[C@H]1O [ATP]
33P phosphate release (charcoal, scintillation): ATPase activity of detergent-solubilized, purified CcoI

From article PMC8475189, “The CopA2-Type P1B-Type ATPase CcoI Serves as Central Hub for cbb3-Type Cytochrome Oxidase Biogenesis” (Frontiers in Microbiology, 2021)
